In article PMC3724849 (PLoS ONE, 2013):
Several values for one entry are separate records, joined by “and”; a condition that tells them apart may be missing. Identical values can stand only once.

Key:
[1] = Protein binding in plasma and brain; format: in vitro ADME
[2] = system: CA1 neurons of organotypic hippocampal brain slices; assay: Current-clamp intrinsic excitability in organotypic hippocampal slices; format: cell-based, rat; conditions: SAHA vs vehicle treated slices; p>0.05
Experimental: (§1) Interface cultures of hippocampal slices were made from 7–8 day old Sprague Dawley rats as previously described. Briefly, hippocampi were dissected in minimum essential medium (MEM; Invitrogen, Eugene, OR) with 15 mm HEPES and 10 mm Tris buffer (Invitrogen). Four-hundred micrometer slices were cultured on Millicell CM culture plate inserts (Millipore, Temecula, CA). The culture medium consisted of 50% MEM, 25% HBSS, and 25% horse serum, with 12.5 mM HEPES buffer and penicillin (100 U/ml)/streptomycin (100 µg/ml) (all from Invitrogen). Cultures were maintained in 5% CO2, at 37°C. Slices were maintained in vitro for one week prior to transfection.
Patch clamp recordings were made in oxygenated Artificial Cerebrospinal Fluid (ACSF) containing (in mM) 127 NaCl, 2.5 KCl, 1.3 MgSO4, 2.5 CaCl2, 1.25 Na2HPO4, 25 NaHCO3, 25 glucose. For voltage-clamp recordings patch pipette internal solution consisted of 120 Cs-methanesulfonate, 20 CsCl, 0.5 EGTA, 10 HEPES, 2.5 MgCl2, 4 Na2ATP, 0.3 NA3GTP, 10 Phosphocreatine, and 5 mM QX-314 Br. Miniature excitatory postsynaptic currents (mEPSCs) were recorded in the presence of 100 µM Picrotoxin (PTX) and 1 µM tetrodotoxin (TTX) at a holding potential of −70 mV. Miniature inhibitory postsynaptic currents (mIPSCs) were recorded in the presence of 10 µM 2,3-Dioxo-6-nitro-1,2,3,4-tetrahydrobenzo[f]quinoxaline-7-sulfonamide (NBQX), 50 µM D-(−)-2-Amino-5-phosphonopentanoic acid (D-AP5) and 1 µM TTX at a holding potential of 0 mV. Significance of differences between mean frequencies or amplitudes of mEPSCs or mIPSCs were assessed using a student’s t-test. […]. For experiments measuring open NMDAR block synaptic inputs were stimulated locally using a bipolar stimulation electrode and NMDAR EPSCs were isolated using NBQX and PTX and measured at −70 mV with external MgCl2 lowered to 0.5 mM. […] For synaptic plasticity experiments synaptic inputs were stimulated locally using a bipolar stimulation electrode and EPSCs were measured at −70 mV. […] Significance of differences in normalized EPSC amplitudes between treatment groups following plasticity induction were assessed using a student’s t-test. […] Action potential threshold was measured during the smallest depolarizing current injection steps that triggered spiking. Input resistance was calculated from the steady-state response to the smallest hyperpolarizing current injection steps to avoid contamination from hyperpolarization-induced inward currents (h-current). The h-current “sag” was measured based on the difference between the maximal and steady-state voltage responses to strong hyperpolarizing current injection steps. Significance of differences in all measures between treatment groups were assessed using a student’s t-test.

[3] = system: Tg2576 mice; assay: Open field test in Tg2576 mice; format: in vivo, mouse; conditions: dosing day 32, 30 minutes, mean ±SEM
[4] = system: excitatory synapses in CA1 of organotypic hippocampal brain slices; assay: Synaptic plasticity (LTP, LTD) in organotypic hippocampal slices; format: cell-based, rat; conditions: p<0.05
Experimental: as §1
Patch clamp recordings were made in oxygenated Artificial Cerebrospinal Fluid (ACSF) containing (in mM) 127 NaCl, 2.5 KCl, 1.3 MgSO4, 2.5 CaCl2, 1.25 Na2HPO4, 25 NaHCO3, 25 glucose. For voltage-clamp recordings patch pipette internal solution consisted of 120 Cs-methanesulfonate, 20 CsCl, 0.5 EGTA, 10 HEPES, 2.5 MgCl2, 4 Na2ATP, 0.3 NA3GTP, 10 Phosphocreatine, and 5 mM QX-314 Br. Miniature excitatory postsynaptic currents (mEPSCs) were recorded in the presence of 100 µM Picrotoxin (PTX) and 1 µM tetrodotoxin (TTX) at a holding potential of −70 mV. […] Significance of differences between mean frequencies or amplitudes of mEPSCs or mIPSCs were assessed using a student’s t-test. […]

[5] = system: C57BL/6 mice; assay: SmartCube high-content behavioral phenotyping; format: in vivo, mouse; conditions: for discrimination index: p<0.001
Experimental: SmartCube experiments were conducted at Psychogenics, Inc (Tarrytown, NY). […] The SmartCube® system can measure numerous spontaneous behaviors and responses to challenges in the same testing environment. The hardware includes force sensors and a number of aversive stimuli used to elicit behavior. Three high-resolution video cameras provide constant 3D view of the mouse in the SmartCube® apparatus throughout the testing period. Digital videos of the subjects were processed with computer vision algorithms to extract over 2,000 independent measures including frequency and duration of behavioral states such as grooming, rearing, etc., and many other features obtained during the test session. […] The database comprises 14 classes of drugs with some of the major classes, such as the antidepressant class, comprising several subclasses with representatives of most of the drugs in the market.

[6] = system: Tg2576 mice; assay: Tg2576 fear conditioning; format: in vivo, mouse; conditions: 25 mg/kg or 50 mg/kg SAHA i.p. daily vs vehicle; p>0.05
[7] = system: CA1 pyramidal neurons of organotypic hippocampal brain slices; assay: Patch clamp of synaptic transmission in organotypic hippocampal slices; format: cell-based, rat
[8] = Pharmacokinetic study after single i.p. injection
[9] = 0.5 µM SAHA for 3–4 days vs vehicle, p>0.05
[10] = single injection, valproate 225 mg/kg

**Q.** For `O=C(CCCCCCC(=O)Nc1ccccc1)NO` [SAHA, Suberoylanilide hydroxamic acid], which “bound to protein, brain” value ([1]; brain) is on record?
**A.** The value was 87.0%.

**Q.** What about the “bound to protein, plasma” value ([1]; plasma) of the same compound?
**A.** Its value is 40.7%.

**Q.** And the action potential threshold [2]?
**A.** The action potential threshold was “unaltered”.

**Q.** And the input resistance [2]?
**A.** Its input resistance is “unaltered”.

**Q.** What about the “membrane sag (hyperpolarization-induced inward current)” value [2] of the same compound?
**A.** Its value is “unaltered”.

**Q.** What about the “number of action potentials elicited by 500 ms current injection pulses” value [2] of the same compound?
**A.** The value was “no difference”.

**Q.** And the “total distance traveled in the open field test” value ([3]; 25 mg/kg i.p. daily)?
**A.** The value was 39.6±6.1 m.

**Q.** What about the “total distance traveled in the open field test” value ([3]; 50 mg/kg i.p. daily) of the same compound?
**A.** The value was 34.2±5.2 m.

**Q.** And the LTP induction ([4]; induction protocol subthreshold in vehicle treated slices)?
**A.** The LTP induction was “readily evoked LTP”.

**Q.** And the LTD induction ([4]; protocol that readily induced LTD in vehicle treated slices)?
**A.** Its LTD induction is “could not produce LTD”.

**Q.** What about the behavioral activity ([5]; daily for 14 days, higher dose of SAHA (150 mg/kg)) of the same compound?
**A.** Its behavioral activity is “not behaviorally active”.

**Q.** And the “drug class activity signature” value ([5]; daily for 14 days, lower dose of SAHA (50 mg/kg))?
**A.** The value was “not consistent with any known therapeutic signal”.

**Q.** And the behavioral activity ([5]; single injection of 50 mg/kg or 150 mg/kg SAHA)?
**A.** Its behavioral activity is “behaviorally inactive”.

**Q.** What about the “percentage of time freezing in response to the context, altered context, or cue” value [6] of the same compound?
**A.** Its value is “no effect of treatment”.

**Q.** And the “percentage of time spent freezing during conditioning” value [6]?
**A.** The value was “no effect of treatment”.

**Q.** What about the “median amplitude of mEPSCs” value ([7]; 0.5 µM SAHA for 3–4 days vs vehicle, p<0.05) of the same compound?
**A.** Its value is “significantly increased”.

**Q.** And the “amplitude of mIPSCs” value [7, 9]?
**A.** Its value is “did not significantly alter”.

**Q.** What about the “frequency of mIPSCs” value [7, 9] of the same compound?
**A.** Its value is “did not significantly alter”.

**Q.** And the “mEPSC frequency (median interval between events)” value [7, 9]?
**A.** Its value is “no significant change”.

**Q.** And the “rate of NMDAR EPSC blockade by MK-801” value ([7]; repetitive stimulation, SAHA vs vehicle treated slices, p>0.05)?
**A.** Its value is “not different”.

**Q.** And the “AUClast of free SAHA in the brain” value ([8]; 50 mg/kg i.p.)?
**A.** Its value is 0.07 µM·h.

**Q.** And the “Cmax of free SAHA in the brain” value ([8]; 50 mg/kg i.p.)?
**A.** Its value is 110 ± 20 nM and 110 nM.

**Q.** What about the “AUClast of free SAHA in the brain” value ([8]; 150 mg/kg i.p.) of the same compound?
**A.** The value was 0.36 µM·h.

**Q.** And the “Cmax of free SAHA in the brain” value ([8]; 150 mg/kg i.p.)?
**A.** Its value is 100 ± 10 nM.

**Q.** For `CCCC(CCC)C(=O)O` [valproate], which “drug class activity signature” value ([5]; daily for 14 days, valproate) is on record?
**A.** The value was “predominantly anxiolytic signature”.

**Q.** And the discrimination index ([5]; daily for 14 days, valproate)?
**A.** The discrimination index was 98%.

**Q.** And the “drug class activity signature” value [5, 10]?
**A.** The value was “strong anxiolytic signature and a mild psychostimulant signature”.

**Q.** And the discrimination index [5, 10]?
**A.** The discrimination index was 100%.
